Publication PMC10223356, “Tetrasubstituted Pyrrole Derivative Mimetics of Protein–Protein Interaction Hot-Spot Residues: A Promising Class of Anticancer Agents Targeting Melanoma Cells” (Molecules, 2023)
Converted amounts (≈) assume the structure as drawn.

Legend:
[1] = design: method as in PMID 23879262; conditions: 20 mM of PBS (pH = 7.4) containing 150 mM of KCl; cited from earlier work
[2] = Solubility assay in PBS by UV light scattering (precipitation point); assay type: physicochemical; conditions: PBS (phosphate-buffered saline), aqueous buffer, kinetic from dmso stock; PBS solution pH = 7.4, 37 °C, mean ± SEM (n = 3)
Method: The solubility of all compounds was evaluated in a PBS solution (phosphate-buffered saline; Sigma-Aldrich, Merck KGaA, Darmstadt, Germany, pH = 7.4) by means of UV spectroscopy.
For each compound, the precipitation point was quantified measuring the increasing of the UV absorption of PBS in the range of 600–800 nm after successive additions of aliquots of a DMSO solution at specific concentration. Because of the absence of bands in the selected UV region, the increase in absorption is due to light scattering caused by the formation of particulate in the PBS. UV absorption data were graphically reported vs. μL of the added DMSO solution (x-axis), and the precipitation point was identified as the intersect point of the bilinear fitted curve. The x coordinate of the intersect point corresponded to the microlitres of DMSO added to PBS (1.4 mL) when the precipitation occurred, from which the concentration of the molecule in PBS at the precipitation point is readily calculated.
The solubility of each molecule in PBS was quantified measuring the UV scattering in the range of 600–800 nm (JASCO UV-530 spectrophotometer, equipped with ETC-505 T temperature controller). DMSO solutions of 1, 9a, 9b, 9c, 9d, 9e, 9f, ±10b, and nutlin-3a were used at a final concentration of 2.6 mM, whereas those of 9g, 9h, and 9i were used at 1.0 mM. A total of 1400 µL of degassed PBS was placed in a quartz cuvette (o.l. 0.5 cm), equilibrated 5 min at 37 °C, and then titrated by 7–10 successive additions of 0.5 µL or 0.3 µL from the DMSO solution. Each titration was performed without removing the cuvette from the UV cell and, after each addition, the solution was equilibrated 1 min a 37 °C under gently stirring before the acquisition of the UV data. For each molecule, the solubility was expressed as the mean ± SEM (n = 3).

[3] = tested on: human colorectal carcinoma HCT-116 cells; assay: Cell survival index (MTT + cell count) bioscreen, HCT-116; assay type: cell-based; conditions: HCT-116, 48 h, human colon cancer cell line, 48 h of incubation, mean ± SEM (n = 30)
Method: (§1) Cell growth inhibition activity of compounds 1, 9a–i, 10a,b, and the positive control nutlin-3a was evaluated following 48 h of incubation with increasing concentrations of the compounds (from 1.5 to 25 µM) in human cancer (A375 and HCT-116) and healthy (L6) cell lines. […] The evaluation of the “cell survival index” show a typical concentration-dependent sigmoid trend, achieving IC50 values in the low micromolar range (Figure S2).
(§2) Human epithelial melanoma A375 cells, human colorectal carcinoma HCT-116 cells, and normal rat L6 myoblast were grown in DMEM (Invitrogen, Paisley, UK) supplemented with 10% fetal bovine serum (FBS, Cambrex, Verviers, Belgium), L-glutamine (2 mM, Sigma, Milan, Italy), penicillin (100 units/mL, Sigma), and streptomycin (100 μg/mL, Sigma) and cultured in a humidified 5% carbon dioxide atmosphere at 37 °C, according to ATCC recommendations. A375 and HCT-116 were used as preclinical human cancer models in vitro, while rat L6 were used as control healthy cells.
(§3) The antiproliferative activity of 1, 9a–i, and 10a,b was investigated through the estimation of a “cell survival index”, arising from the combination of cell viability evaluation with cell counting, as previously reported. The cell survival index is calculated as the arithmetic mean between the percentage values derived from the MTT assay and the automated cell count. Cells were inoculated in 96-microwell culture plates at a density of 10^4 cells/well and allowed to grow for 24 h. The medium was then replaced with fresh medium and cells were treated for an additional 48 h with a range of concentrations (from 1.5 to 25 μM) of 1, 9a–i, and 10a,b. Using the same experimental procedure, cell cultures were also incubated with DMSO as negative controls (vehicle), as well as with cisplatin (cDDP) and nutlin-3a as positive controls for cytotoxic and antiproliferative effects, respectively. Cell viability was evaluated using the MTT assay procedure. Cell number was determined by TC20 automated cell counter (Bio-Rad, Milan, Italy), providing an accurate and reproducible total count of cells and a live/dead ratio in one step by a specific dye (trypan blue) exclusion assay. The calculation of the concentration required to inhibit the net increase in the cell number and viability by 50% (IC50) is based on plots of data (n = 6 for each experiment) and repeated five times (total n = 30). IC50 values were calculated from a dose–response curve by nonlinear regression using a curve-fitting program, GraphPad Prism 5.0, and are expressed as mean values ± SEM (n = 30) of five independent experiments.

[4] = tested on: normal rat L6 myoblast; assay: Cell survival index (MTT + cell count) bioscreen, L6; assay type: cell-based; conditions: healthy rat myoblast cell line, 48 h of incubation, mean ± SEM (n = 30), read-out: L6 IC50
Method: as §1, §2, §3

[5] = tested on: human epithelial melanoma A375 cells; assay: Cell survival index (MTT + cell count) bioscreen, A375; assay type: cell-based
Method: as §1, §2, §3

solubility at 1 min [2]: 3.5 ± 0.1 µM (≈ 1.6 µg/mL)
SMILES: Cc1ccc(Cn2c(C(=O)NCc3cccc(Cl)c3)cc(C(=O)c3ccccc3)c2C)cc1 [compound 1, 4-benzoyl-N-[(3-chlorophenyl)methyl]-5-methyl-1-[(4-methylphenyl)methyl]-1H-pyrrole-2-carboxamide]
Solubility [1]: ≤ 6.8 µM
IC50 [3]: 41.4 ± 6 µM
CC50 [4]: 42 ± 3 µM
IC50 ([5]; A-375, human melanoma cell line, 48 h of incubation, cell survival index, mean ± SEM (n = 30)): 20 ± 4 µM
SI (selectivity index) ([5]; SI = IC50 L6/IC50 A375): 2.1
